Data on 6 sequences can be found in patent publication US20040229772A1, “Peptides responsive to antibodies against consensus peptide of the CS4-CFA/I family proteins” (priority 1996, published 2004).

For test [1], the system named is antibodies raised to the consensus peptide. Briefly: ELISA of 8-mer peptides with rabbit antibodies. In kind it is binding. Conditions: for interaction of peptides with the antibodies raised to the consensus peptide: rabbit antibodies raised to consensus peptide SEQ ID NO:1; for reactivity of 8-mer peptides with antibodies from the rabbits: rabbit antibodies raised to consensus peptide SEQ ID NO:1, biotin-SGSG-peptide on streptavidin. As to the method:
(§1) Blocks of pins for cleavable syntheses were obtained from Chiron Mimotopes U.S. Peptide synthesis was carried out according to the manufacturer's instructions using Opfp-derivatized amino acids. Peptides of length 8 with 7 overlap were manufactured in order to locate all linear epitopes in the sequence with a highest redundancy. […] Peptides were cleaved from the pins using 0.1 M phosphate buffer, pH 8.0, containing 40% acetonitrile. Two peptides were made and sacrificed for amino acid analysis as proof of peptide purity. A dinitrophenol (DNP) pin was included so that the efficiency of the cleavage could be monitored spectrophotometrically.
(§2) For blocking, a composition containing 5% nonfat dry milk in PBS+0.2% sodium azide was used. Stock streptavidin (Calbiochem Corp., La Jolla, Calif.) at 1 mg/ml in water was kept frozen in aliquots for up to several months. On the day of use, the stock streptavidin was diluted in phosphate buffered saline (PBS) to provide a concentration of 5 μg/ml streptavidin. Goat F(ab′)2 anti-mouse, anti-rabbit and anti-human sera were labeled with alkaline phosphatase (Biosource, International, Camarillo, Calif.).
(§3) Streptavidin was plated at 5 μg/ml, 50 μl per well, and incubated over night at 4° C. Plates were then washed by hand (Nunc Immunowash 12 hand plate washer. Fisher Scientific, Pittsburgh, Pa.) three times with PBS/0.1% TWEEN 20™. Peptides were then diluted to 10 μg/ml in PBS and plated at 50-μl/well. After incubation for one hour at room temperature followed by washing, the peptides were incubated with sera diluted in blocker at appropriate concentrations (5% nonfat dry milk) for 2 hours at room temperature. After washing the wells, 50 μl of phosphatase-labeled anti-serum IgG diluted 1:1000 in blocker was added to each well and was allowed to incubate at room temperature for 1 hour. The plates were washed. The 100 μl of PNDP (p-nitrophenylphosphate) substrate, prepared according to the manufacturer's instructions, was added to each well. Results were read at 5, 15 and 60 minutes using a microtiter plate reader (UVmax™, Moelcular Devices, Sunnyvale, Calif.).
Antibodies from the rabbits were then tested against the specific 8-mer peptides obtained from SEQ ID NO:1 in the manner disclosed above to determine the binding sites of the antibodies in the sera with the consensus peptide.
(An ELISA detects its analyte on a solid surface through an enzyme-linked reagent.)

The test system of the next test is Antibody to 0166 lower. Briefly: ELISA of 8-mer peptides (pins) with rabbit serum. The class given is binding. The protocol: as §1, §2, §3
(§4) Partially to fully purified colonization factor (40% to 100% pure) was run on SDS-PAGE gel (5-15 μg/lane of 10 comb gel (precast 10 comb, 1 mm thickness, Tris-tricene gel from Novex, San Diego, Calif.), for primary immunization run 9 lanes for each rabbit (45-135 μg CF protein with ½ the amount used in the primary immunization used as a booster). The gel was stained with 0.5% COOMASSIE BLUE™ (BioRad, Richmond, Calif.) in water for 1 hour, then destained with multiple changes of water for 60-90 minutes. The colonization factor bands were excised with a scalpel and the excess gel trimmed. The bands were stored at −20° C. until use.
(§5) After removal from freezer, the gel slices were transferred to a glass tissue homogenizer using a teflon pestle with grooves at the tip. The slices were ground with 0.3 ml phosphate buffered saline (PBS). The drill was run to homogenize the gel for 30 to 45 seconds. (In the instant case, a pestle with a shaft of steel was used which allowed placement of the pestle into the chuck of the hand-held drill.)
(§6) The homogenate was transferred to 16 mm×150 mm test tubes with disposable plastic transfer pipet. The pestle and homogenizer vessel was rinsed repeatedly with PBS and the contents transferred to the 16×150 test tube until a volume of 1.2 ml was obtained.
(§7) The sample obtained above was placed in a vortex mixer and vortexed on high. Freund's adjuvant 1.2 ml was added. (Complete Freund's was used for the primary immunization, while incomplete Freund's was used for the boost.) The composition was vortexed until a thick emulsion of almost a butter consistency was obtained (12-20 minutes).
(§8) A preimmune serum was obtained on all animals, which were then immunized with the 1 ml of the emulsion subcutaneously at 4-6 spots on the shoulders and rump. The animals were boosted three weeks later, then bleed 10 days after the booster shots. […]

The next test relates to Antibody to 0166 upper. Briefly: ELISA of 8-mer peptides (pins) with rabbit serum. In kind it is binding. The protocol: as §1, §2, §3, §4, §5, §6, §7, §8
The next test deals with Antibody to CS17. Briefly: ELISA of 8-mer peptides (pins) with rabbit serum. In kind it is binding. Conditions: a listed pin number means recognized. As to the method: as §1, §2, §3, §4, §5, §6, §7, §8
The test system of another test is Antibody to CS1. Briefly: ELISA of 8-mer peptides (pins) with rabbit serum. The class given is binding. Conditions: a listed pin number means recognized. As to the method:
as §1, §2, §3, §4, §5, §6, §7, §8

The test system of a further test is Antibody to CS2. Briefly: ELISA of 8-mer peptides (pins) with rabbit serum. The class given is binding. Particulars: a listed pin number means recognized. The protocol:
as §1, §2, §3, §4, §5, §6, §7, §8

A further test concerns Antibody to CS4. Briefly: ELISA of 8-mer peptides (pins) with rabbit serum. In kind it is binding. Conditions: a listed pin number means recognized. As to the method:
as §1, §2, §3, §4, §5, §6, §7, §8

The subject of a further test is Antibody to CFA/I. Briefly: ELISA of 8-mer peptides (pins) with rabbit serum. In kind it is binding. As to the method: as §1, §2, §3, §4, §5, §6, §7, §8
In another test the test system is 0166. Briefly: Western blot of immune serum with denatured protein. In kind it is binding, E. coli. Particulars: 4 strong reaction, rabbit serum. As to the method: (§9) Rabbits were bled, then immunized on day 0 with a composition containing 280 μg peptide/BSA conjugate in Freund's complete adjuvant. On day 21, the animals were boosted with 140 μg peptide/BSA conjugate in Freund's incomplete adjuvant. Blood was drawn on day 32. The interaction of antibodies raised against the specific antigens of the denatured proteins of the various strains was studied by comparing interaction of serum from the animals obtained on day 0 with response on to serum from the animals obtained on day 32 by Western blot. In all instances, the Western blot was negative for reaction with serum obtained on day 0. The Western blot data on interaction of immune serum collected on day 32 with the denatured proteins is given below with 0 being no reaction and 4 being a strong reaction:
(§10) Rabbits were given a composition containing 400 μg peptide of the formula: […] (SEQ ID NO:1) in complete Freund's adjuvant. The response was evaluated as in Example 2:
(§11) The same study was done comparing antibodies raised to denatured proteins of PCF 0166.
(§12) Effect of antibody raised to whole CS2 protein was studied in the manner of example 5.

In the next test the test system is CS17. Described as above. Conditions: 4 strong reaction, rabbit serum. The class given is binding, E. coli. The protocol:
as §9, §10, §11, §12

A further test deals with CS1. The description is as above. The class given is binding, E. coli. Conditions: 4 strong reaction, rabbit serum. The protocol:
as §9, §10, §11, §12

A further test deals with CS4. Described as above. In kind it is binding, E. coli. Particulars: 4 strong reaction, rabbit serum. The protocol:
as §9, §10, §11, §12

The test system of the next test is whole bacteria, CF CS1. Briefly: Agglutination of whole bacteria by serum of immunized rabbits. Conditions: two rabbits immunized per preparation. The class given is cell-based, E. coli.
The test system of another test is whole bacteria, CF CS2. The description is as above. The class given is cell-based, E. coli. Conditions: two rabbits immunized per preparation.
The subject of the next test is whole bacteria, CF CS4. Described as above. Particulars: two rabbits immunized per preparation. The class given is cell-based, E. coli.
A further test concerns whole bacteria, CF CS17. The description is as above. In kind it is cell-based, E. coli. Particulars: two rabbits immunized per preparation.
For the next test, the system named is whole bacteria, CF 0166. Described as above. Conditions: two rabbits immunized per preparation. In kind it is cell-based, E. coli.
A further test concerns whole bacteria, CF CFA/1. Described as above. In kind it is cell-based, E. coli. Particulars: two rabbits immunized per preparation.
The mark [2] stands for this setting: rabbit 1082, a listed pin number means recognized.
Where [3] appears, read: rabbit 1081, a listed pin number means recognized.
Where [4] appears, read: rabbit 1083, a listed pin number means recognized.
Where [5] appears, read: rabbit 934, a listed pin number means recognized.
Where [6] appears, read: rabbit 1078, a listed pin number means recognized.
[7] abbreviates: rabbit 1079, a listed pin number means recognized.

Turning to “ASVDPTID (listed as Escherichia coli) [compound 9]”, in [1], the “interaction of peptides with the antibodies raised to the consensus peptide” value (shortened to “interaction of peptides”) is recorded as “more reliably interactive”. Moreover, the “reactivity of 8-mer peptides with antibodies from the rabbits” value (“reactivity of 8-mer peptides” for short) in test [1] was “most reactive”. Moreover, the “pins (8-aa peptide) recognized by serum” value with Antibody to 0166 lower (setting [2]) is 9; in the test on Antibody to 0166 upper (setting [3]), 9; in the test on Antibody to CS17 (Antibody to CS17, rabbit 1084) it was 9; in the test with Antibody to CS1 (Antibody to CS1, rabbit 1090), 9; with Antibody to CS2 (Antibody to CS2, rabbit 1076), 9; with Antibody to CS2 (Antibody to CS2, rabbit 1077), 9. In addition, in the test on Antibody to CS4 (Antibody to CS4, rabbit 938), the “pins (8-aa peptide) recognized by serum” value is listed as 9.

Take “KNITVTAS (listed as Escherichia coli) [compound 3]”: in test [1], the “reactivity of 8-mer peptides” value was “most reactive”. Moreover, the “pins (8-aa peptide) recognized by serum” value with Antibody to 0166 lower (setting [4]) is 3; with Antibody to CS17 (Antibody to CS17, rabbit 1080), 3; in the test with Antibody to CS1 (Antibody to CS1, rabbit 1089), 3; with Antibody to CS4 (Antibody to CS4, rabbit 940), 3.

As to “PTIDLLQA (listed as Escherichia coli) [compound 13]”, the “interaction of peptides” value in test [1] is recorded as “more reliably interactive”. Besides, the “reactivity of 8-mer peptides” value in [1] is “most reactive”. The “pins (8-aa peptide) recognized by serum” value in the test with Antibody to 0166 lower (setting [2]), in the test on Antibody to 0166 lower (setting [4]), with Antibody to 0166 upper (setting [5]), with Antibody to 0166 upper (setting [3]), in the test with Antibody to CFA/I (setting [6]) and with Antibody to CFA/I (setting [7]) was 13 each time. Also, the “pins (8-aa peptide) recognized by serum” value amounted to 13 in the test with Antibody to CS1 (Antibody to CS1, rabbit 1089); 13 with Antibody to CS1 (Antibody to CS1, rabbit 1090); 13 with Antibody to CS4 (Antibody to CS4, rabbit 938); 13 in the test on Antibody to CS4 (Antibody to CS4, rabbit 940).

On to “TIDLLQAD (listed as Escherichia coli) [compound 14]”, for which the “reactivity of 8-mer peptides” value in [1] is on record as “most reactive”. In addition, the “pins (8-aa peptide) recognized by serum” value amounted to 14 in the test with Antibody to 0166 lower (setting [2]); 14 with Antibody to 0166 upper (setting [5]); 14 in the test on Antibody to CFA/I (setting [6]); 14 with Antibody to CFA/I (setting [7]); 14 with Antibody to CS4 (Antibody to CS4, rabbit 940).

Regarding “VEKNITVTASVDPTIDLLQADGSALPSAVALTYSPA (listed as Escherichia coli) [SEQ ID NO:1, 36 amino acid consensus peptide of the CS4-CFA/I family]”, the “Western blot reaction of immune serum with denatured protein” value (shortened to “Western blot reaction of immune serum”) with 0166 (titer 1:50, 0 no reaction) was found to be 4; in the test with 0166 (titer 1:500, 0 no reaction), 2; in the test with CS17 (titer 1:50, 0 no reaction), 2; in the test on CS17 (titer 1:500, 0 no reaction) it was 0; in the test with CS17 (titer 1:5000, 0 no reaction) it was 0; in the test with CS17 (titer 1:50000, 0 no reaction), 0. In addition, the “Western blot reaction of immune serum” value with CS1 (titer 1:50, 0 no reaction) is on record as 4; with CS1 (titer 1:500, 0 no reaction), 4; with CS1 (titer 1:5000, 0 no reaction) it was 2; in the test with CS1 (titer 1:50000, 0 no reaction), 1; in the test on CS4 (titer 1:50, 0 no reaction), 2; in the test on CS4 (titer 1:500, 0 no reaction), 0. Moreover, the “Western blot reaction of immune serum” value with CS4 (titer 1:5000, 0 no reaction) turned out to be 0; in the test on CS4 (titer 1:50000, 0 no reaction), 0. Besides, the “agglutination of whole bacteria by serum” value is on record as 0/2 in the test on whole bacteria, CF CS1; 0/2 with whole bacteria, CF CS2; 0/2 in the test on whole bacteria, CF CS4; 0/2 in the test on whole bacteria, CF CS17; 0/2 in the test on whole bacteria, CF 0166; 0/2 in the test with whole bacteria, CF CFA/1.

As for “VDPTIDLL (listed as Escherichia coli) [compound 11]”, in test [1], the “interaction of peptides” value is reported as “more reliably interactive”. Moreover, the “reactivity of 8-mer peptides” value in test [1] is “most reactive”. Also, the “pins (8-aa peptide) recognized by serum” value in the test with Antibody to 0166 lower (setting [2]) was 11; in the test with Antibody to 0166 upper (setting [3]) it was 11; in the test with Antibody to CFA/I (setting [7]), 11; in the test with Antibody to CS1 (Antibody to CS1, rabbit 1089), 11; in the test with Antibody to CS1 (Antibody to CS1, rabbit 1090), 11; in the test on Antibody to CS2 (Antibody to CS2, rabbit 1076), 11. For the same sequence, the “pins (8-aa peptide) recognized by serum” value stood at 11 in the test on Antibody to CS2 (Antibody to CS2, rabbit 1077); 11 with Antibody to CS4 (Antibody to CS4, rabbit 938); 11 in the test on Antibody to CS4 (Antibody to CS4, rabbit 940).
